Earlier results in publication PMC6245954 (European journal of medicinal chemistry, 2018).

Columns and labels:
[1] = tested on: two prostate cancer xenografts; details: even at the highest dose (0.73 mmol/kg); cited from earlier work
prostate cancer = details: cited from earlier work
[2] = in words; cited from earlier work

## COc1cc(-c2oc3ccccc3c(=O)c2O)cc(OC)c1OC [Compd 3, 3′,4′,5′-trimethoxyflavonol]
[1]
  in vivo antitumor efficacy: very moderate
Prostate cancer
  fold greater potency than quercetin (1) and fisetin (2): 5- to 16 fold
[2]
  bioavailability: poor bioavailability
